In BindingDB's records for doi:10.1016/0960-894X(95)00549-9 (1996):

Target: T1, Bile salt-activated lipase (Bos taurus, UniProt P30122)
T1 sequence (P30122 whole entry): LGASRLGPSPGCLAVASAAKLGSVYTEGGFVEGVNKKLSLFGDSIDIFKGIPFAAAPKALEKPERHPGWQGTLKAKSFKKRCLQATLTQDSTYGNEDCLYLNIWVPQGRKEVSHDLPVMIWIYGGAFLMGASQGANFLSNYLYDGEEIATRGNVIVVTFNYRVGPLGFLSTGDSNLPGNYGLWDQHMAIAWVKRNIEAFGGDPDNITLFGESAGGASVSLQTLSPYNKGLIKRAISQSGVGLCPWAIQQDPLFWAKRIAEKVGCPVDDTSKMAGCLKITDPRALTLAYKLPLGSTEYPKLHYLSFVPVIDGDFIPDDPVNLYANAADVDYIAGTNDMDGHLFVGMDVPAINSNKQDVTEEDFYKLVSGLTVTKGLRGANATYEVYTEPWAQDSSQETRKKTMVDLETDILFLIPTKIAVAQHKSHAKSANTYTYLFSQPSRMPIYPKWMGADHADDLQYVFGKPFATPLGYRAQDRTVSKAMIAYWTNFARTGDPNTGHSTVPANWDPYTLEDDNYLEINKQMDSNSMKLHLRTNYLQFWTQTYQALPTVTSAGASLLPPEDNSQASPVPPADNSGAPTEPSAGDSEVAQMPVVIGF
Assay: Bimolecular rate constant (ki) for the Pancreatic cholesterol esterase-catalyzed hydrolysis of 4-nitrophenyl butyrate
Settings: for kon: read-out: kon (M-1-s-1)

SMILES | kon (M-1-s-1) | kon
CCCCNC(=O)Oc1ccc2ccccc2c1-c1c(OC(=O)NCCCC)ccc2ccccc12 [Butyl-carbamic acid 2'-butylcarbamoyloxy-[1,1']binaphthalenyl-2-yl ester] | 4000 M-1-s-1 | 4000 M⁻¹ s⁻¹
CCCCNC(=O)Oc1ccc2ccccc2c1-c1c(O)ccc2ccccc12 [Butyl-carbamic acid 2'-hydroxy-[1,1']binaphthalenyl-2-yl ester] | 500000.000000 M-1-s-1 | 500000 M⁻¹ s⁻¹
CCCCNC(=O)Oc1ccc2ccccc2c1-c1c(OC(=O)CCC)ccc2ccccc12 [Butyric acid 2'-butylcarbamoyloxy-[1,1']binaphthalenyl-2-yl ester] | 6000 M-1-s-1 | 6000 M⁻¹ s⁻¹
